Reference: patent US6486174B2, “Tetrahydroisoquinoline-3-carboxylic acid alkoxyguanidines as integrin antagonists” (3-Dimensional Pharmaceuticals, Inc., priority 2000, dated 2002)
Structures can show the parent of a compound that is named as a salt.

Each compound was assayed against T1, human αvβ3 (Homo sapiens, UniProt P05106+P06756) (assay: αvβ3-vitronectin assay (ELISA, inhibition of biotinylated vitronectin binding)). Conditions: plate-coated human αvβ3, biotinylated human vitronectin 0.5 μg/mL, room temperature; read-out: αvβ3 IC50 (Inhibition of the αvβ3-Vitronectin Interaction).
T1 construct: purchased Chemicon CC1019
T1 sequence (P06756 31-889 limits assumed): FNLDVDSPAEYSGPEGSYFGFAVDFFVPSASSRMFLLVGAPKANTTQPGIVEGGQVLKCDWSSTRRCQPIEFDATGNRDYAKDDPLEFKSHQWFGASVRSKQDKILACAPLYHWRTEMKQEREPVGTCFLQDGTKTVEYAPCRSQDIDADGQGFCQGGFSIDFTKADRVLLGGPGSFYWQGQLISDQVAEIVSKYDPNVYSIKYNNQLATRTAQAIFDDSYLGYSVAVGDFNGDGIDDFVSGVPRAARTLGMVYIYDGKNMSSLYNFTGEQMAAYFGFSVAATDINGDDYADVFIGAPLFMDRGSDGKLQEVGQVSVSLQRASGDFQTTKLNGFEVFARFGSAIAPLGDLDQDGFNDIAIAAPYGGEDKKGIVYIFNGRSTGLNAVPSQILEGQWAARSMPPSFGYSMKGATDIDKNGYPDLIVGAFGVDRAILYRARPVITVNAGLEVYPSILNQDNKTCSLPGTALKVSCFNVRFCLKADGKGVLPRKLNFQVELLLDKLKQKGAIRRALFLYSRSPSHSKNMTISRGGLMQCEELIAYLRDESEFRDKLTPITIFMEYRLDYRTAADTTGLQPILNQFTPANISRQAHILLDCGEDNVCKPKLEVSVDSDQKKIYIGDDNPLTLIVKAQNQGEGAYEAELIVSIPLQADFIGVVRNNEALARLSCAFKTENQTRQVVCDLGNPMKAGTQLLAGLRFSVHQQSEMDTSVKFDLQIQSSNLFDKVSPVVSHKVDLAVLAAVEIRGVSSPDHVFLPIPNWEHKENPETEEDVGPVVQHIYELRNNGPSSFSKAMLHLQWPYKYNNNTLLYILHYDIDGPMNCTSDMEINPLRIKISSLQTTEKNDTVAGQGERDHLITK
T1 sequence (P06756 891-1048 partner limits assumed): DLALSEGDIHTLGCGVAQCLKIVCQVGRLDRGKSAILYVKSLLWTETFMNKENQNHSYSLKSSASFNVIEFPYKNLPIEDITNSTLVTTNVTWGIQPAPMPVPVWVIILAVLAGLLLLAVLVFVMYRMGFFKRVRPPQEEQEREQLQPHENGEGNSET
T1 sequence (P05106 27-788): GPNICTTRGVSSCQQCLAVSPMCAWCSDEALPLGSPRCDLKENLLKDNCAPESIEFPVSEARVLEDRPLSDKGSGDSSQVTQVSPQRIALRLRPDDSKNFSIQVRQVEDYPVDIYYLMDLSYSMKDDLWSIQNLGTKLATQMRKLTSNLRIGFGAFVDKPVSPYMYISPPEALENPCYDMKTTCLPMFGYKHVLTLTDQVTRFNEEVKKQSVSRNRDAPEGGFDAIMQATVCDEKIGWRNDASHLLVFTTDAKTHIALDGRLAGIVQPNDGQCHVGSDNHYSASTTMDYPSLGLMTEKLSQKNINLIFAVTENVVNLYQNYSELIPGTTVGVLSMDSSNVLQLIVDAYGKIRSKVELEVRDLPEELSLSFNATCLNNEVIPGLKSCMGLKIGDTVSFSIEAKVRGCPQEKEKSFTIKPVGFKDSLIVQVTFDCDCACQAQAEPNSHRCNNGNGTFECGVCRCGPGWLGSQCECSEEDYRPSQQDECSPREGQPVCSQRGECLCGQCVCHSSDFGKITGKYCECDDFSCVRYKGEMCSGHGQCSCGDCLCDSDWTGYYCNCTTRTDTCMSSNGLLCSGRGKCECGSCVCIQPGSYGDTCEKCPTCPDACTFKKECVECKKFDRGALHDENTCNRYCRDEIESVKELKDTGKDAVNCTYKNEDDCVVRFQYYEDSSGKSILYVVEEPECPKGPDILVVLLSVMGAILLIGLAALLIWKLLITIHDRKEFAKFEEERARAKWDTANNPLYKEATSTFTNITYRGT
Procedure: The assay was based on the method of Niiya (Niiya, K., et al, Blood 70:475-483 (1987)). All the steps were performed at room temperature. Costar 9018 flat-bottom 96-well ELISA plates were coated overnight with 100 μL/well of 0.4 μg/mL human αvβ3 (Chemicon CC1019) in TS buffer (20 mM Tris-HCl pH 7.5, 150 mM NaCl, 1 mM CaCl2, 1 mM MgCl2, 1 mM MnCl2). Plates were blocked for 2 hours with 200 μL/well of TS buffer containing 1% BSA (TSB buffer), and washed 3 times with 200 μL/well of PBST buffer. Controls or test compound were mixed with 0.5 μg/mL of human vitronectin (Chemicon CC080) that had been biotinylated in-house with sulfo-NHS-LC-LC-biotin (Pierce 21338, 20:1 molar ratio), and 100 μL/well of these solutions (in TSB buffer) were incubated for 2 hours. The plate was then washed 5 times with PBST buffer, and 100 μL/well of 0.25 μg/mL NeutrAvidin-horseradish peroxidase conjugate (Pierce 31001) in TSB buffer was incubated for 1 hour. Following a 5-fold PBST buffer wash, the plate was developed by adding 100 μL/well of 0.67 mg o-phenylenediamine dihydrochloride per mL of 0.012% H2O2, 22 mM sodium citrate, 50 mM sodium phosphate, pH 5.0 at room temperature. The reaction was stopped with 50 μL/well of 2M H2SO4, and the absorbence at 492 nm was recorded. Percent (%) inhibition was calculated from the average of two separate determinations relative to buffer controls (no test compound added), and a four parameter fit (Marquardt, D. W., J. Soc. Indust. Appl. Math. 11:431-441 (1963)) was used to estimate the half maximal inhibition concentration (IC50).

IC50 [nM] | Structure (SMILES)
73 | COc1ccc(OC)c(S(=O)(=O)N2Cc3cc(OCCCONC(=N)N)ccc3C[C@H]2C(=O)O)c1 [Example 1, (3S)-7-[3-(Amidinoaminooxy)propoxy]-2-[(2,5-dimethoxyphenyl)sulfonyl]-1,2,3,4-tetrahydroisoquinoline-3-carboxylic acid trifluoroacetic Acid Salt]
500 | N=C(N)NOCCCOc1ccc2c(c1)CN(S(=O)(=O)c1ccc3ccccc3c1)[C@H](C(=O)O)C2 [Example 3, (3S)-7-[3-(Amidinoaminooxy)propoxy]-2-(2-naphthylsulfonyl)-1,2,3,4-tetrahydroisoquinoline-3-carboxylic Acid Trifluoroacetic Acid Salt]
1100 | N=C(N)NOCCCOc1ccc2c(c1)CN(S(=O)(=O)c1ccccc1)[C@H](C(=O)O)C2 [Example 2, (3S)-7-[3-(Amidinoaminooxy)propoxy]-2-(phenylsulfonyl)-1,2,3,4-tetrahydroisoquinoline-3-carboxylic Acid Trifluoroacetic Acid Salt]
